One block for each molecule: values may come before it.
Assays:
[1] = biological target: T1, TtMgtE (full-length MgtE) (Thermus thermophilus, UniProt Q5SMG8); assay: isothermal titration calorimetry; type: binding
T1 construct: full-length, expressed in E. coli C41 (DE3), Ni-NTA and gel filtration in detergent; homodimer; tag not described
T1 sequence (Q5SMG8 1-450): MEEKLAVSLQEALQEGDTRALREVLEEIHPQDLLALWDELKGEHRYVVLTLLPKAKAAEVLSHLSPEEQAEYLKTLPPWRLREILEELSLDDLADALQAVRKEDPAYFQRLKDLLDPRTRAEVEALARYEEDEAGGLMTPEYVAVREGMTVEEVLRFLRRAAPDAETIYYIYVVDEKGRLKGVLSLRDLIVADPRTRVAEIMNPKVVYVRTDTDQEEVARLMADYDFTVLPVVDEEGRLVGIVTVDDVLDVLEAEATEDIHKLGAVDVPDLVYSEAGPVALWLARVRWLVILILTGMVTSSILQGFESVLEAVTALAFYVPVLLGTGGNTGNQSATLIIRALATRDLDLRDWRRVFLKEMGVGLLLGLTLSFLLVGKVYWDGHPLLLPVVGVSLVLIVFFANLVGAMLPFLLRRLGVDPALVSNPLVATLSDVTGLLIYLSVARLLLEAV

[2] = biological target: T2, TtMgtE (full-length MgtE) (Thermus thermophilus, UniProt Q5SMG8, R187E); assay: isothermal titration calorimetry; type: binding; conditions: 20 °C, no added Mg2+, NTM detergent, ligand solution pH 6.5; CBS domain site
T2 construct: full-length, expressed in E. coli C41 (DE3), Ni-NTA and gel filtration in detergent; homodimer; tag not described

[3] = biological target: the molecule itself; assay: crystal structure; full-length MgtE with ATP; vapor diffusion over 9% PEG 4000, 0.2 M MgCl2, 0.05 M MES pH 6.5; 3.6 Å
[4] = biological target: the molecule itself; assay: crystal structure; cytosolic domain (1-275) with ATP; vapor diffusion over 20-22% PEG 400, 0.2 M MgCl2, 0.1 M HEPES pH 7.4; 3.0 Å

T2 sequence (Q5SMG8 whole entry R187E, the tested form may be a part): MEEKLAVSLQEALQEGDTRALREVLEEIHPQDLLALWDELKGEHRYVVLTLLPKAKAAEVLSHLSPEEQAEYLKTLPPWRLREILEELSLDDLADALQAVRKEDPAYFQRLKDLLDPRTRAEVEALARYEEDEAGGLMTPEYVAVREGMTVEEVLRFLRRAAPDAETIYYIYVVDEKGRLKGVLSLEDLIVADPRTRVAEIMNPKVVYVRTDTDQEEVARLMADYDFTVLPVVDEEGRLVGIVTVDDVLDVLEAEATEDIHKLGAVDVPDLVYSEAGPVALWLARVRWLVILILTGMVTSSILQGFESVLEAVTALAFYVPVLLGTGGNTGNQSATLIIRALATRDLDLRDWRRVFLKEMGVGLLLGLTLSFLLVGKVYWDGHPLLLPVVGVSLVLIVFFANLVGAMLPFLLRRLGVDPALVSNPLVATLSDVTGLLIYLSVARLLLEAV

Kd [1]: 763 µM
Molecule: Nc1ncnc2c1ncn2[C@@H]1O[C@H](COP(=O)(O)OP(=O)(O)O)[C@@H](O)[C@H]1O [ADP]

Kd [1]: 415 µM
Molecule: Nc1ncnc2c1ncn2[C@@H]1O[C@H](COP(=O)(O)OP(=O)(O)OP(=O)(O)O)[C@@H](O)[C@H]1O [ATP]
isothermal titration calorimetry [2]: The injection of ATP into the R187E mutant solution still showed the weaker binding to ATP

B1: full-length Thermus thermophilus MgtE (natural protein, UniProt Q5SMG8 1-450, looked up)
chain: MEEKLAVSLQEALQEGDTRALREVLEEIHPQDLLALWDELKGEHRYVVLTLLPKAKAAEVLSHLSPEEQAEYLKTLPPWRLREILEELSLDDLADALQAVRKEDPAYFQRLKDLLDPRTRAEVEALARYEEDEAGGLMTPEYVAVREGMTVEEVLRFLRRAAPDAETIYYIYVVDEKGRLKGVLSLRDLIVADPRTRVAEIMNPKVVYVRTDTDQEEVARLMADYDFTVLPVVDEEGRLVGIVTVDDVLDVLEAEATEDIHKLGAVDVPDLVYSEAGPVALWLARVRWLVILILTGMVTSSILQGFESVLEAVTALAFYVPVLLGTGGNTGNQSATLIIRALATRDLDLRDWRRVFLKEMGVGLLLGLTLSFLLVGKVYWDGHPLLLPVVGVSLVLIVFFANLVGAMLPFLLRRLGVDPALVSNPLVATLSDVTGLLIYLSVARLLLEAV
notes: MgtE Mg2+ channel of Thermus thermophilus, full length; crystallised with ATP and Mg2+; That MgtE is a homodimer is said in the introduction, of the earlier full-length structure; also called TtMgtE; wild type MgtE; source: E. coli C41 (DE3), solubilized with DDM, purified (Ni-NTA, Superdex 200 SEC)
binding result [3]: binds

B2: cytosolic domain (1-275) of MgtE (domain or fragment, Thermus thermophilus, UniProt Q5SMG8 1-275, looked up)
chain: MEEKLAVSLQEALQEGDTRALREVLEEIHPQDLLALWDELKGEHRYVVLTLLPKAKAAEVLSHLSPEEQAEYLKTLPPWRLREILEELSLDDLADALQAVRKEDPAYFQRLKDLLDPRTRAEVEALARYEEDEAGGLMTPEYVAVREGMTVEEVLRFLRRAAPDAETIYYIYVVDEKGRLKGVLSLRDLIVADPRTRVAEIMNPKVVYVRTDTDQEEVARLMADYDFTVLPVVDEEGRLVGIVTVDDVLDVLEAEATEDIHKLGAVDVPDLVYSE
notes: MgtE Mg2+ channel of Thermus thermophilus, cytosolic domain (N domain and tandem CBS domains), residues 1-275; crystallised with ATP and Mg2+; also called MgtE cytosolic domain; source: E. coli C41 (DE3), purified
binding result [4]: binds
